In ChEMBL document CHEMBL5137057, “Small Carbohydrate Derivatives as Potent Antibiofilm Agents” (J Med Chem, 2022):
Values after ≈ are worked out from the molar mass of the structure shown. Each block holds one compound with its values, some of them ahead of it.

Tests used:
[1] = target: T1, Sortase A (Staphylococcus aureus, UniProt Q9S446); assay: Inhibition of Staphylococcus aureus ATCC 6538p Sortase A protease expressed in Escherichia coli BL21 expression system using Dabcyl-QALPETGEE-Edans as substrate incubated for 1 hr by FRET assay
[2] = tested on: Cutibacterium acnes; assay: Antibiofilm activity against Propionibacterium acnes LMG 16711 assessed as inhibition of biofilm formation at 0.01 % (w/v) incubated for 24 hrs by fluorescence based analysis; assay type: functional; set-up: scale not given: the % may be the effect or the level left
[3] = tested on: Cutibacterium acnes; assay: Antibiofilm activity against Propionibacterium acnes LMG 16711 assessed as inhibition of biofilm formation at 0.08 % (w/v) incubated for 24 hrs by fluorescence based analysis; assay type: functional; set-up: scale not given: the % may be the effect or the level left
[4] = tested on: Pseudomonas aeruginosa; assay: Antibiofilm activity against Pseudomonas aeruginosa ATCC 27853 at 0.5 mg/ml measured after 24 hrs by crystal violet staining based assay relative to control; assay type: functional
[5] = tested on: Streptococcus mutans; assay: Prevention of Streptococcus mutans CLSM 001 adherence to sucrose-dependent glass surface at 1 to 2 mg/ml relative to control; assay type: functional; settings: dose 1-2 mg/ml
[6] = tested on: Pseudomonas aeruginosa; assay: Potentiation of ciprofloxacin-induced antibacterial activity against Pseudomonas aeruginosa MTCC 2488 biofilm at 410 ug/ml incubated for 24 hrs pretreated with compound followed by ciprofloxacin addition by congo red binding assay; assay type: functional; settings: dose 410 µg/ml
[7] = tested on: Aggregatibacter actinomycetemcomitans; assay: Antibacterial activity Actinobacillus actinomycetemcomitans ATCC 700685 assessed as bacterial growth inhibition incubated for 24 hrs by broth dilution assay; assay type: functional
[8] = tested on: Pseudomonas aeruginosa; assay: Antibacterial activity against Pseudomonas aeruginosa MTCC 2488 biofilm at 410 ug/ml incubated for 24 hrs by congo red binding assay; assay type: functional; settings: dose 410 µg/ml
[9] = tested on: Porphyromonas gingivalis; assay: Antibacterial activity Porphyromonas gingivalis ATCC 33277 assessed as bacterial growth inhibition incubated for 24 hrs by broth dilution assay; assay type: functional
[10] = tested on: Pseudomonas aeruginosa; assay: Potentiation of tetracyclin-induced antibacterial activity against Pseudomonas aeruginosa MTCC 2488 biofilm at 410 ug/ml incubated for 24 hrs pretreated with compound followed by tetracyclin addition by congo red binding assay; assay type: functional; settings: dose 410 µg/ml
[11] = target: T2, PA-I galactophilic lectin (Pseudomonas aeruginosa (strain ATCC 15692 / PAO1 / 1C / PRS 101 / LMG12228), UniProt Q05097); assay: Inhibition of FITC-labelled Pseudomonas aeruginosa LecA
T2 sequence (Q05097 whole entry): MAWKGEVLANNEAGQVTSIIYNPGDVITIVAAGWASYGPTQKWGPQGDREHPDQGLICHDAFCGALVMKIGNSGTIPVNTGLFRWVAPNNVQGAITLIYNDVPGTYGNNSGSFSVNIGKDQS

[12] = Antibiofilm activity against Pseudomonas aeruginosa PA14 cocultured with Staphylococcus aureus ATCC 6538 assessed as inhibition of biofilm formation incubated for 24 hrs by crystal violet staining based microtiter plate method relative to control; assay type: functional; set-up: scale not given: the % may be the effect or the level left
[13] = target: Lectin A (Photorhabdus laumondii subsp. laumondii, UniProt Q7N561); assay: Inhibition of Photorhabdus luminescens LecA expressed in Escherichia coli BL21(DE3) cells by fluorescence based analysis
[14] = Downregulation of c-di-GMP level in Pseudomonas aeruginosa PA14 planktonic cells harboring wspF gene mutation at 10 uM incubated for 24 hrs by HPLC method; assay type: functional
[15] = tested on: Pseudomonas aeruginosa; assay: Downregulation of c-di-GMP level in Pseudomonas aeruginosa PA14 harboring wspF gene mutation biofilm at 10 uM incubated for 24 hrs by HPLC method; assay type: functional
[16] = target: Sortase A (Streptococcus mutans, UniProt Q8CM62); assay: Inhibition of Streptococcus mutans ATCC 2517 Sortase A protease expressed in Escherichia coli BL21 expression system using Abz-LPATG-Dap(Dnp)-NH2 as substrate incubated for 1 hrs by FRET assay
[17] = tested on: Streptococcus mutans; assay: Antibiofilm activity against Streptococcus mutans ATCC 2517 assessed as inhibition of biofilm formation at 128 ug/ml measured after 16 hrs by crystal violet staining based assay relative to control; assay type: functional; set-up: scale not given: the % may be the effect or the level left; settings: dose 128 µg/ml
[18] = tested on: Staphylococcus aureus; assay: Prevention of Staphylococcus aureus ATCC 25904 adherence to fibrinogen at 64 ug/ml by crystal violet staining based analysis relative to control; assay type: functional; settings: dose 64 µg/ml
[19] = target: T1, Sortase A; assay: Inhibition of Staphylococcus aureus ATCC 25904 Sortase A protease expressed in Escherichia coli BL21 expression system using Dabcyl-QALPETGEE-Edans as substrate incubated for 30 mins by FRET assay
[20] = tested on: Pseudomonas aeruginosa; assay: Inhibition of Pseudomonas aeruginosa PAO1 Pyocyanin at 64 to 256 ug/ml by spectrophotometrical analysis relative to control; settings: dose 64-256 µg/ml
[21] = tested on: Pseudomonas aeruginosa; assay: Antibiofilm activity against Pseudomonas aeruginosa PAO1 assessed as reduction in bacterial growth by crystal violet staining based assay; assay type: functional
[22] = Inhibition of AHL-mediated quorum sensing system in Pseudomonas aeruginosa PAO1 assessed as decrease in C4-HSL levels at 64 ug/ml by HPLC/MS analysis relative to control; settings: dose 64.0 µg/ml
[23] = target: 3-(3-hydroxydecanoyloxy)decanoate synthase (Pseudomonas aeruginosa (strain ATCC 15692 / PAO1 / 1C / PRS 101 / LMG12228)) (UniProt Q51559); assay: Inhibition of Pseudomonas aeruginosa PAO1 Rhamnolipid at 64 to 256 ug/ml by spectrophotometrical analysis relative to control; settings: dose 64-256 µg/ml
[24] = target: Protease LasA (Pseudomonas aeruginosa) (UniProt P14789); assay: Inhibition of Pseudomonas aeruginosa PAO1 LasA protease at 64 to 256 ug/ml using azocasein as substrate incubated for 24 hrs by spectrophotometrical analysis relative to control; settings: dose 64-256 µg/ml
[25] = target: Elastase (Pseudomonas aeruginosa (strain ATCC 15692 / PAO1 / 1C / PRS 101 / LMG12228)) (UniProt P14756); assay: Inhibition of Pseudomonas aeruginosa PAO1 LasB elastase at 64 to 256 ug/ml incubated for 16 hrs by elastin Congo red (ECR) assay relative to control; settings: dose 64-256 µg/ml
[26] = tested on: Burkholderia cepacia; assay: In vivo antibacterial activity against Burkholderia cepacia LMG 16656 infected in BALB/C mouse assessed as reduction in bacterial load in lung at 2 mg/kg, INH administered for 24 to 48 hr post bacterial infection and measured after 3 days post compound treatment in presence of tobramycin relative to control; assay type: functional; set-up: scale not given: the % may be the effect or the level left; settings: time 3 day

Chain of Lectin A (Q7N561 whole entry): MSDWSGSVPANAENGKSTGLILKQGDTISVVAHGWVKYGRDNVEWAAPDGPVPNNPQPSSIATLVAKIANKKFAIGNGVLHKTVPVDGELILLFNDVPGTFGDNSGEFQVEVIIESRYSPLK
Chain of Elastase (Pseudomonas aeruginosa (strain ATCC 15692 / PAO1 / 1C / PRS 101 / LMG12228)) (P14756 198-498 limits assumed): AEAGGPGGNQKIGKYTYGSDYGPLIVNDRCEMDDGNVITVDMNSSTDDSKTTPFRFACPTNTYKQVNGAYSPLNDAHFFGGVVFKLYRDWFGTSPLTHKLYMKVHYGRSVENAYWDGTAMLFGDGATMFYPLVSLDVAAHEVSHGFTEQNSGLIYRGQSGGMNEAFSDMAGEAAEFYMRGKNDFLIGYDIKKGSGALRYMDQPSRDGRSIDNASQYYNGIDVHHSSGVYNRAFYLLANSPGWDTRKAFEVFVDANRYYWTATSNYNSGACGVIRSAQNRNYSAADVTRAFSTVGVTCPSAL
Chain of Sortase A (Streptococcus mutans, UniProt Q8CM62) (Q8CM62 whole entry): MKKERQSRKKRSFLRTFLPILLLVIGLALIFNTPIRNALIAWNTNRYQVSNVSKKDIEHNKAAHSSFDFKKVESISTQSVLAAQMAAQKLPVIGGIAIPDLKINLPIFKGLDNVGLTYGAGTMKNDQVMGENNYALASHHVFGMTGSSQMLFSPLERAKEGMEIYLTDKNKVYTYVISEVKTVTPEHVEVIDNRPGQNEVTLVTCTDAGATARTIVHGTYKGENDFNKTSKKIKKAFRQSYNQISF
Chain of Protease LasA (Pseudomonas aeruginosa) (P14789 whole entry): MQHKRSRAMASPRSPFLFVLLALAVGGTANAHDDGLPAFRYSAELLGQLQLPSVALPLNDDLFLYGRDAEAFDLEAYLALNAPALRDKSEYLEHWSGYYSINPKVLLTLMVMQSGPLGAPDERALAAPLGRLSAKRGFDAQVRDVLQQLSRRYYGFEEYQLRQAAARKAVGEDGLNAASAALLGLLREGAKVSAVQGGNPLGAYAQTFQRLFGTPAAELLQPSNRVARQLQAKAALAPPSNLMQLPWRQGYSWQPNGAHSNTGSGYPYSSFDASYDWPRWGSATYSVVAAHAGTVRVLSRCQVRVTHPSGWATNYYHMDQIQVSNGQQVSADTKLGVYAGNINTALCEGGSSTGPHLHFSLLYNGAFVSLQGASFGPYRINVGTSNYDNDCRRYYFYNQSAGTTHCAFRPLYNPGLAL

Compound: CC(C)=CCc1c(O[C@@H]2O[C@H](CO)[C@@H](O)[C@H](O)[C@H]2O)cc(O)c2c(=O)c(O[C@@H]3O[C@H](CO)[C@@H](O)[C@H](O)[C@H]3O)c(-c3ccc(O)c(O)c3)oc12
Activity [2]: 40%
Activity [3]: 75%

Compound: CC(=O)O[C@@H]1[C@H](O[C@H]2CC[C@H](C)[C@@]3(C)C[C@@H](/C(C)=C/CC=C(C)C)CC[C@H]23)OC[C@@H](OC(C)=O)[C@H]1OC(C)=O
Activity [4]: 60%

Compound: O=c1c(O[C@@H]2OC[C@H](O)[C@H](O)[C@H]2O)c(-c2ccc(O)c(O)c2)oc2cc(O)cc(O)c12 [GUAJAVERIN]
Activity [5]: 83.7%

Compound: OC[C@H]1O[C@H](OC[C@H]2O[C@H](O[C@]3(CO)O[C@H](CO)[C@@H](O)[C@@H]3O)[C@H](O)[C@@H](O)[C@@H]2O)[C@H](O)[C@@H](O)[C@H]1O [RAFFINOSE]
Activity [12]: 23%
IC50 [13]: 110 µM
Activity [14]: 47%
Activity [15]: 59%

Compound: C[C@H]1O[C@@H](Oc2c(-c3ccc(O)c(O)c3)oc3cc(O)cc(O)c3c2=O)[C@H](O)[C@H](O)[C@H]1O
Activity [18]: 51.9%
IC50 [19]: 71.4 µM

Continued, in another order:

IC50 [1]: 31.6 µM
Compound: CC[C@H](CCC(C)[C@H]1CC[C@H]2[C@@H]3CCC4C[C@@H](O[C@@H]5O[C@H](CO)[C@@H](O)[C@H](O)[C@H]5O)CC[C@]4(C)[C@H]3CC[C@]12C)C(C)C (stereo partly specified)

MIC50 [7]: 9800 µg/mL (≈ 16.9 mM)
MIC50 [9]: 9800 µg/mL (≈ 16.9 mM)
Compound: C[C@@H]1O[C@@H](O[C@H]2[C@H](Oc3cc(O)c4c(c3)O[C@H](c3ccc(O)cc3)CC4=O)O[C@H](CO)[C@@H](O)[C@@H]2O)[C@H](O)[C@H](O)[C@H]1O [NARINGIN]
Activity [6]: 89.35%
Activity [8]: 49.5%
Activity [10]: 73.76%

IC50 [11]: 0.22 µM
Compound: OC[C@H]1O[C@@H](OCCCc2cn(CCn3cc([C@@H]4O[C@H](CO)[C@@H](n5cc([C@@H]6O[C@H](CO)[C@@H](n7cc(CCCO[C@@H]8O[C@H](CO)[C@H](O)[C@H](O)[C@H]8O)nn7)[C@H](O)[C@H]6O)nn5)[C@H](O)[C@H]4O)nn3)nn2)[C@H](O)[C@@H](O)[C@H]1O

IC50 [16]: 16.7 µM
Compound: C[C@H]1O[C@@H](O[C@H]2C(=O)c3c(O)cc(O)cc3O[C@@H]2c2ccc(O)c(O)c2)[C@H](O)[C@H](O)[C@H]1O
Activity [17]: 70%

inhibition [20]: 61.7%
MIC [21]: > 1020 µg/mL
inhibition [22]: 77.2%
inhibition [23]: 45.1%
inhibition [24]: 48.6%
inhibition [25]: 77.1%
Compound: O=C(O)[C@H]1O[C@@H](Oc2cc3oc(-c4ccccc4)cc(=O)c3c(O)c2O)[C@H](O)[C@@H](O)[C@@H]1O [BAICALIN]
Activity [26]: 99%
